Like-named read-outs stand apart in the source and are kept apart here.
Assays:
[1] = tested on: Fibrosarcoma Meth A; test: Test Method B: intrapleurally inoculated Meth A tumor in mice, injection into pleural cavity, mean survival time; type: in vivo, BALB/c mice; design: dose or concentration left out as unconfirmed; settings: for Anti-tumor activity (%) *d: comparison of mean survival time of medicated group (T) and control group (C), into pleural cavity three times; for Mean survival time: into pleural cavity three times (before 14 days, after 1 hour and after 3 days of tumor implantation), 5 x 10^5 Meth A cells intrapleurally
Method: Groups of eight female BALB/c mice, aged 8-9 weeks and weighing 18.0-22.5 g were used.
Fibrosarcoma Meth A (hereinafter referred to as Meth A) was successively transferred every 7 days into BALB/c mice by intraperitoneal inoculation of the ascites cells thereof and the Meth A in the ascites cells as harvested 6 or 7 days after the inoculation was used as tumor cells.
Each of the BALB/c mice was inoculated intrapleurally with 5 x 10^5 Meth A cells in 0.1 ml Hanks solution.
Test compound was dissolved in phosphate buffer saline solution, and was injected into pleural cavity to each of the mice in doses of 100 pg/0.05 ml/mouse three times, i.e. before 14 days, after 1 hour and after 3 days of tumor implantation.
The antitumor activity of the test compound was estimated by comparing mean survival time of the two groups. • T : Mean survival time of the medicated group • C : Mean survival time of the control group

[2] = tested on: Fibrosarcoma Meth A; test: Test Method A: intradermally inoculated Meth A tumor in mice, intratumoral injection of test compound, tumor growth inhibition; type: in vivo, BALB/c mice; settings: 100 µg/mouse intratumorally once daily from Day 1 to Day 4 postimplant; for responders at 0.1 mg / inhibition in vivo at 0.1 mg: Meth-A; for responders at 0.1 mg: read-out: Ratio of tumor free mice [Number of tumor free mice/ Number of mice used as a group] (converted); for inhibition in vivo at 0.1 mg: Mus musculus, read-out: Tumor growth inhibition (%) [(1-T/c)x100]; for Mean of two diameters of the growing tumor: 1 x 10^5 Meth A cells intradermally
Method: Groups of six female BALB/c mice, aged 12 weeks and weighing 19 - 21 g were used.
Fib,rosarcoma Meth A (hereinafter referred to as Meth A) was successively transferred every 7 days into BALB/c mice by intraperitoneal inoculation of the ascites cells thereof and the Meth A in the ascites cells as harvested 6 days after the inoculation was used as tumor cells.
Each of the BALB/c mice was inoculated intradermally with 1 x 10^5 Meth A cells in 0.05 ml Hanks solution.
Test compound was dissolved in 0.5% methylcellulose saline solution, and was intratumorally injected to each of the mice in doses of 100 µg/mouse once daily from Day 1 to Day 4 postimplant.
The control group was given with a vehicle alone in the same way.
The antitumor effectiveness of the test compound was estimated by tumor growth inhibition (1-T/C). • T: Mean diameter of the growing tumor of the medicated group • C: Mean diameter of the growing tumor of the control group

SMILES	Anti-tumor activity (%) *d [1] [%]	Mean survival time [1] [days]	Ratio of tumor free mice [Number of tumor free mice/ Number of mice used as a group] ([2]; Day 21)	responders at 0.1 mg ([2]; Day 14) [%]	inhibition in vivo at 0.1 mg ([2]; Day 14) [%]	inhibition in vivo at 0.1 mg ([2]; Day 21) [%]	further results
CCCCCCCCCCCCCCCCOCC(COP(=O)(O)OCCN1CCN(C)CC1)OC (racemic) [3-(2), (rac)-1-0-Hexadecyl-2-0-methyl-glycerol-3-[2-(4-methyl-l-piperazinyl)ethyl]phosphate]	350	21.0					
CCCCCCCCCCCCCCCCCCOCC(COP(=O)(O)OCCN1CCN(CC)CC1)OC (racemic) [3-(3), (rac)-1-0-Octadecyl-2-0-methyl-glycerol-3-[2-(4-ethyl-l-piperazinyl)ethyl]phosphate]	317	19.0					
CCCCCCCCCCCCCCCCCCOCC(COP(=O)(O)OCCN1CCN(CCO)CC1)OC (racemic) [3-(7), (rac)-1-0-Octadecyl-2-0-methyl-glycerol-3-[2-[4-(2-hydroxyethyl)-1-piperazinyl]ethyl]phosphate]	325	19.5					
CCCCCCCCCCCCCCCCCCOCC(COP(=O)([O-])OCC[n+]1ccc(C)cc1)OC (racemic) [3-(9), (rac)-1-0-Octadecyl-2-0-methyl-glycerol-3-[2-(4-methyl-l-pyridinio)ethyl]phosphate]	350	21.0					
CCCCCCCCCCCCCCCCCCOCC(COP(=O)([O-])OCC[n+]1cccc(C)c1)OC (racemic) [3-(10), (rac)-1-0-Octadecyl-2-0-methyl-glycerol-3-(2-(3-methyl-1-pyridinio)ethyl]phosphate]	364	25.5					
CCCCCCCCCCCCCCCCCCOCC(COP(=O)([O-])OCC[n+]1ccccn1)OC (racemic) [3-(12), (rac)-1-0-Octadecyl-2-0-methyl-glycerol-3-[2-(1-pyridazinio)ethyl]phosphate]	333	20.0					
CCCCCCCCCCCCCCCCCCOCC(COP(=O)(O)OCCn1ccnc1)OC (racemic) [3-(13), (rac)-1-0-Octadecyl-2-0-methyl-glycerol-3-[2-(1-imidazolyl)ethyl]phosphate]			0/6	0	37	31	
CCCCCCCCCCCCCCCCCCOCC(COP(=O)(O)OCCN1CCCCC1)OC (racemic) [3-(14), (rac)-l-O-Octadecyl-2-0-methyl-glycerol-3-(2-piperidinoethyl)phosphate]	325	19.5					
CCCCCCCCCCCCCCCCCCOCC(COP(=O)(O)OCCN1CCN(C)CC1)OC (racemic) [3-(16), (rac)-1-O-Octadecyl-2-0-methyl-glycerol-3-[2-(4-methyl-l-piperazinyl)ethyl]phosphate]	350	21.0					
CCCCCCCCCCCCCCCCCCOCC(COP(=O)([O-])OCC[n+]1cccn1C)OC (racemic) [3-(18), (rac)-1-0-Octadecyl-2-0-methyl-glycerol-3-[2-(1-methyl-2-pyrazolio)ethyl]phosphate]	325	19.5					
CCCCCCCCCCCCCCCCCCOCC(COP(=O)([O-])OCC[n+]1ccccc1)OCC (racemic) [3-(19), (rac)-1-0-Octadecyl-2-0-ethyl-glycerol-3-[2-(1-pyridinio)ethyl]phosphate]	317	19.0					
CCCCCCCCCCCCCCCCCCOCC(COP(=O)([O-])OCC[n+]1cnn(C)c1)OC (racemic) [3-(21), (rac)-1-0-Octadecyl-2-0-methyl-glycerol-3-[2-(1-methyl-1,2,4-triazol-4-io)ethyl]phosphate]			6/6	100	100	100	Mean of two diameters of the growing tumor ([2]; Day 14): 0 mm; Mean of two diameters of the growing tumor ([2]; Day 21): 0 mm
CCCCCCCCCCCCCCCCCCOCC(COP(=O)([O-])OCC[n+]1ccsc1)OC (racemic) [3-(22), (rac)-1-O-Octadecyl-2-0-methyl-glycerol-3-[2-(3-thiazolio)ethyl]phosphate]			3/6	50	77	68	
CCCCCCCCCCCCCCCCCCOCC(COP(=O)([O-])OCC[n+]1cccc(C(=O)OCC)c1)OC (racemic) [3-(23), (rac)-1-0-Octadecyl-2-0-methyl-glycerol-3-[2-(3-ethoxycarbonyl-1-pyridinio)ethyl]phosphate]			3/6	50	77	70	
CCCCCCCCCCCCCCCCCCOCC(COP(=O)([O-])OCC[n+]1ccn(C)c1)OC (racemic) [3-(25), (rac)-1-0-Octadecyl-2-0-methyl-glycerol-3-[2-(1-methyl-3-imidazolio)ethyl]phosphate]			5/6	83.3	94	93	
CCCCCCCCCCCCCCCCOCC(COP(=O)([O-])OCC[n+]1ccccc1)OCc1ccccc1 (racemic) [3-(26), (rac)-l-0-Hexadecyl-2-0-benzyl-glycerol-3-[2-(l-pyridinio)ethyl]phosphate]	>650	>39.0					
CCCCCCCCCCCCCCCCCCOCC(O)COP(=O)([O-])OCC[n+]1ccccc1 (racemic) [3-(30), (rac)-1-0-Octadecyl-glycerol-3-[2-(1-pyridinio)ethyl]-phosphate]			4/6	66.7	85	84	
CCCCCCCCCCCCCCCCCCOCC(COP(=O)([O-])OCC[n+]1ccccc1)SC (racemic) [3-(31), (rac)-1-0-Octadecyl-2-methylthio-1,3-propanediol-3-[2-(l-pyridinio)ethyl]phosphate]	358	21.5					
CCCCCCCCCCCCCCCCCCOCC(COP(=O)([O-])OCCNC(=O)C[n+]1ccccc1)OC (racemic) [5-(2), (rac)-1-0-Octadecyl-2-0-methyl-glycerol-3-[2-(1-pyridinioacetylamino)ethyl]phoshate]	364	25.5					
CCCCCCCCCCCCCCCCCCOCC(COP(=O)([O-])OCC[n+]1ccccc1)Sc1nncs1 (racemic) [8-(4), (rac)-1-0-Octadecyl-2-(1,3,4-thiadiazolyl-2-thio)-1,3-propanediol-3-[2-(1-pyridinio)ethyl]phosphate]	417	25.0					
CCCCCCCCCCCCCCCCCCOCC(Cl)COP(=O)([O-])OCC[n+]1ccccc1 (racemic) [9-(4), (rac)-1-0-Octadecyl-2-chloro-1,3-propanediol-3-[2-(1-pyridinio)ethyl]phosphate]			4/6	66.7	92	86	
